# Source: PubChem BioAssay (NCI)
#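 Here, GI50 denotes the concentration required for 50% inhibition of growth. The concentration for full growth arrest is given as TGI.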
# Tests used:
# Assay in all cases: NCI anticancer screen, dose series, 384-well format
# [1] = test system: SF-295 CNS
# [2] = test system: MDA-MB-231 breast
# [3] = test system: 786-0 renal
# [4] = test system: UACC-257 melanoma
# [5] = test system: U251 glioblastoma
# [6] = test system: CCRF-CEM leukemia
# [7] = test system: HOP-92 NSCLC
# [8] = test system: UACC-62 melanoma
# [9] = test system: NCI-H522 lung
# [10] = test system: SK-OV-3 ovarian
# [11] = test system: SK-MEL-28 melanoma
# [12] = test system: MDA-MB-468 breast
# [13] = test system: HT29 colon
# [14] = test system: MCF7 breast
# [15] = test system: OVCAR-4 ovarian
# [16] = test system: NCI-H322M lung
# [17] = test system: HS 578T breast
# [18] = test system: MALME-3M melanoma
# [19] = test system: A549 NSCLC
# [20] = test system: T-47D breast
# [21] = test system: RXF 393 renal
# [22] = test system: OVCAR-8 ovarian
# [23] = test system: OVCAR-5 ovarian
# [24] = test system: SK-MEL-5 melanoma
# [25] = test system: HOP-62 NSCLC
# [26] = test system: SNB-75 CNS
# [27] = test system: SF-539 CNS
# [28] = test system: HCT-15 colon
# [29] = test system: NCI-H226 lung
# [30] = test system: NCI-H460 NSCLC
# [31] = test system: M14 melanoma
# [32] = test system: RPMI-8226 leukemia
# [33] = test system: KM12 colon
# [34] = test system: BT-549 breast
# [35] = test system: COLO 205 colon
# [36] = test system: SN12C renal
# [37] = test system: TK-10 renal
# [38] = test system: ACHN renal
# [39] = test system: HL-60(TB) leukemia
# [40] = test system: SF-268 CNS
# [41] = test system: SW-620 colon
# [42] = test system: SR leukemia
# [43] = test system: MOLT-4 leukemia
# [44] = test system: CAKI-1 renal
# [45] = test system: OVCAR-3 ovarian
# [46] = test system: SNB-19 CNS
# [47] = test system: NCI/ADR-RES ovarian
# [48] = test system: MDA-MB-435 melanoma
# [49] = test system: IGROV1 ovarian
# [50] = test system: DU-145 prostate
# [51] = test system: EKVX NSCLC
# [52] = test system: NCI-H23 lung
# [53] = test system: SK-MEL-2 melanoma
# [54] = test system: PC-3 prostate
# [55] = test system: HCT-116 colon
# [56] = test system: K-562 leukemia
# [57] = test system: HCC-2998 colon
# [58] = test system: UO-31 renal
# [59] = test system: A498 renal
# [60] = test system: LOX IMVI melanoma
smiles,measurement,setting,value
NC(=S)N/N=C/c1ncccc1N,GI50,[1],1.1 µM
same,TGI,[1],3.86 µM
same,GI50,[2],0.616 µM
same,TGI,[2],11.9 µM
same,GI50,[3],0.242 µM
same,TGI,[3],0.54 µM
same,GI50,[4],3.17 µM
same,TGI,[4],15 µM
same,GI50,[5],0.314 µM
same,TGI,[5],0.855 µM
same,GI50,[6],0.291 µM
same,TGI,[6],0.622 µM
same,GI50,[7],0.47 µM
same,TGI,[7],21.8 µM
same,GI50,[8],0.249 µM
same,TGI,[8],0.581 µM
same,GI50,[9],0.561 µM
same,TGI,[9],7.76 µM
same,GI50,[10],2.67 µM
same,TGI,[10],7.61 µM
same,GI50,[11],2.67 µM
same,TGI,[11],41.6 µM
same,GI50,[12],1.41 µM
same,TGI,[12],3.56 µM
same,GI50,[13],2.21 µM
same,TGI,[13],43.4 µM
same,GI50,[14],0.487 µM
same,TGI,[14],10.8 µM
same,GI50,[15],4.39 µM
same,TGI,[15],9.35 µM
same,GI50,[16],7.28 µM
same,TGI,[16],> 100 µM
same,GI50,[17],0.654 µM
same,TGI,[17],> 100 µM
same,GI50,[18],0.378 µM
same,TGI,[18],0.933 µM
same,GI50,[19],1.45 µM
same,TGI,[19],> 100 µM
same,GI50,[20],1.33 µM
same,TGI,[20],7.19 µM
same,GI50,[21],2.08 µM
same,TGI,[21],23.6 µM
same,GI50,[22],0.241 µM
same,TGI,[22],0.499 µM
same,GI50,[23],2.69 µM
same,TGI,[23],8.73 µM
same,GI50,[24],0.53 µM
same,TGI,[24],1.96 µM
same,GI50,[25],0.357 µM
same,TGI,[25],1.41 µM
same,GI50,[26],0.344 µM
same,TGI,[26],2.9 µM
same,GI50,[27],0.212 µM
same,TGI,[27],0.451 µM
same,GI50,[28],3.47 µM
same,TGI,[28],> 100 µM
same,GI50,[29],1.7 µM
same,TGI,[29],3.45 µM
same,GI50,[30],0.413 µM
same,TGI,[30],1.57 µM
same,GI50,[31],0.586 µM
same,TGI,[31],1.87 µM
same,GI50,[32],0.203 µM
same,TGI,[32],0.373 µM
same,GI50,[33],3.52 µM
same,TGI,[33],24.8 µM
same,GI50,[34],0.675 µM
same,TGI,[34],3.94 µM
same,GI50,[35],0.879 µM
same,TGI,[35],2.23 µM
same,GI50,[36],0.73 µM
same,TGI,[36],3.14 µM
same,GI50,[37],8.17 µM
same,TGI,[37],> 100 µM
same,GI50,[38],0.281 µM
same,TGI,[38],0.585 µM
same,GI50,[39],0.233 µM
same,TGI,[39],0.428 µM
same,GI50,[40],0.318 µM
same,TGI,[40],0.789 µM
same,GI50,[41],0.697 µM
same,TGI,[41],21.4 µM
same,GI50,[42],0.192 µM
same,TGI,[42],0.337 µM
same,GI50,[43],0.194 µM
same,TGI,[43],0.342 µM
same,GI50,[44],0.494 µM
same,TGI,[44],15.8 µM
same,GI50,[45],0.532 µM
same,TGI,[45],8.64 µM
same,GI50,[46],0.709 µM
same,TGI,[46],4.14 µM
same,GI50,[47],1.44 µM
same,TGI,[47],3.04 µM
same,GI50,[48],7.8 µM
same,TGI,[48],> 100 µM
same,GI50,[49],0.816 µM
same,TGI,[49],20.5 µM
same,GI50,[50],0.584 µM
same,TGI,[50],3.63 µM
same,GI50,[51],3.28 µM
same,TGI,[51],18.3 µM
same,GI50,[52],0.257 µM
same,TGI,[52],0.518 µM
same,GI50,[53],0.45 µM
same,TGI,[53],0.772 µM
same,GI50,[54],10.6 µM
same,TGI,[54],28.2 µM
O=C(NC[C@H](O)CO)c1ccncc1Nc1ccc(I)cc1F,GI50,[1],30.6 µM
same,TGI,[1],> 100 µM
same,GI50,[2],0.449 µM
same,TGI,[2],24.4 µM
same,GI50,[3],19.6 µM
same,TGI,[3],> 100 µM
same,GI50,[4],< 0.01 µM
same,TGI,[4],0.0319 µM
same,GI50,[5],1.67 µM
same,TGI,[5],> 100 µM
same,GI50,[6],34.5 µM
same,TGI,[6],> 100 µM
same,GI50,[7],0.484 µM
same,TGI,[7],3.62 µM
same,GI50,[9],13.6 µM
same,TGI,[9],> 100 µM
same,GI50,[55],0.0614 µM
same,TGI,[55],1.45 µM
same,GI50,[10],23.1 µM
same,TGI,[10],> 100 µM
same,GI50,[11],< 0.01 µM
same,TGI,[11],0.0136 µM
same,GI50,[12],14.8 µM
same,TGI,[12],36.2 µM
same,GI50,[13],0.0156 µM
same,TGI,[13],> 100 µM
same,GI50,[14],18.9 µM
same,TGI,[14],> 100 µM
same,GI50,[56],0.423 µM
same,TGI,[56],> 100 µM
same,GI50,[57],0.0278 µM
same,TGI,[57],0.217 µM
same,GI50,[15],21.5 µM
same,TGI,[15],> 100 µM
same,GI50,[16],0.498 µM
same,TGI,[16],> 100 µM
same,GI50,[58],0.354 µM
same,TGI,[58],11.5 µM
same,GI50,[17],16 µM
same,TGI,[17],> 100 µM
same,GI50,[18],< 0.01 µM
same,GI50,[19],0.3 µM
same,TGI,[19],18.8 µM
same,GI50,[20],26.1 µM
same,TGI,[20],> 100 µM
same,GI50,[59],2.63 µM
same,TGI,[59],34.5 µM
same,GI50,[21],2.03 µM
same,TGI,[21],17.4 µM
same,GI50,[60],0.0887 µM
same,TGI,[60],1.72 µM
same,GI50,[22],27 µM
same,TGI,[22],> 100 µM
same,GI50,[23],0.0476 µM
same,TGI,[23],> 100 µM
same,GI50,[24],0.0331 µM
same,TGI,[24],13.9 µM
same,GI50,[25],0.25 µM
same,TGI,[25],> 100 µM
same,GI50,[26],8.92 µM
same,TGI,[26],68 µM
same,GI50,[27],2.9 µM
same,TGI,[27],25 µM
same,GI50,[28],3.19 µM
same,TGI,[28],> 100 µM
same,GI50,[29],0.614 µM
same,TGI,[29],47.4 µM
same,GI50,[30],1.55 µM
same,TGI,[30],> 100 µM
same,GI50,[31],< 0.01 µM
same,TGI,[31],0.0235 µM
same,GI50,[32],7.66 µM
same,TGI,[32],47.3 µM
same,GI50,[33],0.0953 µM
same,TGI,[33],> 100 µM
same,GI50,[34],15 µM
same,TGI,[34],> 100 µM
same,GI50,[35],< 0.01 µM
same,TGI,[35],0.171 µM
same,GI50,[36],4.09 µM
same,TGI,[36],> 100 µM
same,GI50,[37],2.24 µM
same,TGI,[37],39 µM
same,GI50,[38],13.8 µM
same,TGI,[38],> 100 µM
same,GI50,[39],< 0.01 µM
same,TGI,[39],0.0114 µM
same,GI50,[40],> 100 µM
same,TGI,[40],> 100 µM
same,GI50,[41],< 0.01 µM
same,TGI,[41],> 100 µM
same,GI50,[42],1.33 µM
same,TGI,[42],15.9 µM
same,GI50,[43],12.3 µM
same,TGI,[43],25.2 µM
same,GI50,[44],0.433 µM
same,TGI,[44],> 100 µM
same,GI50,[45],14 µM
same,TGI,[45],> 100 µM
same,GI50,[46],13.2 µM
same,TGI,[46],> 100 µM
same,GI50,[47],22.3 µM
same,TGI,[47],> 100 µM
same,GI50,[48],0.0134 µM
same,TGI,[48],> 100 µM
same,GI50,[49],0.0849 µM
same,TGI,[49],10.9 µM
same,GI50,[50],8.45 µM
same,TGI,[50],> 100 µM
same,GI50,[51],8.37 µM
same,TGI,[51],> 100 µM
same,GI50,[52],0.0413 µM
same,TGI,[52],1.73 µM
same,GI50,[54],> 100 µM
same,TGI,[54],> 100 µM
